# Experimental data published in PMC7722752, “First-in-human Phase 1 open label study of the BET inhibitor ODM-207 in patients with selected solid tumours” (British Journal of Cancer, 2020).
# Where two headings read alike, the source gives them in different places.
# How the values were obtained:
# platelet count = experiment: Phase 1 study: platelet count as pharmacodynamic biomarker; settings: in vivo
# Description: Platelet count was chosen as a pharmacodynamic biomarker based on the observed robust correlation between BET inhibitor exposure and thrombocytopaenia in preclinical and clinical studies.[13],[14]
# [1] = system: non-BET family bromodomains; settings: preclinical; cited from earlier work
# [2] = Phase 1 study: plasma pharmacokinetics and food effect; format: in vivo, human; settings: for metabolite/parent ratio based in AUC(0-t): main metabolite = demethylation product
# Description: All patients provided written informed consent.
# selected solid tumours = experiment: Phase 1 study: anti-tumour activity (RECIST 1.1, PCWG3, Lugano); format: in vivo, human
# Description: (§1) Response was assessed using RECIST 1.1 for patients with advanced solid tumours,[20] Prostate Cancer Working Group 3 criteria (PCWG3) for castrate-resistant prostate cancer[21] and Lugano criteria for non-Hodgkin lymphoma.[22]
# Efficacy evaluation was performed on all patients who received two or more cycles of treatment (≥8 weeks).
# [3] = system: breast cancer and leukaemia and prostate cancer xenograft models; parameters: method as in earlier work; settings: preclinical; cited from earlier work
# [4] = system: patients with selected solid tumours
# Description: The study design contained two parts: (1) dose escalation in patients with advanced solid tumours with an innovative single dose accelerated titration procedure in the first cohort (1A), (2) evaluation of food effect on bioavailability (1B). The single-dose accelerated titration procedure in the first cohort involved comparison of measured pharmacokinetic parameters in the first cohort of patients against preclinical models to evaluate whether exposure was within the target range. If the measured exposure was outside the target range (below or above), the protocol allowed for dose adjustment. Dose escalation was performed using a traditional 3 + 3 schedule. […] The relevant national authorities provided regulatory approval and local institutional review boards approved the protocol. All study procedures were conducted in accordance with the Declaration of Helsinki and good clinical practice. All patients provided written informed consent.
# The starting dose was chosen as it was reasonably expected to be both pharmacologically active and safe and tolerable. The target exposure for the starting dose was estimated from exposures observed in pre-clinical anti-tumour activity and safety studies. The estimated human dose required was predicted by both human equivalent dose calculations and physiologically-based pharmacokinetic modelling. […] Treatment was taken in the ambulatory setting, except for hospital admissions required for pre-specified study-related procedures.
# as §1
# Safety analyses included all patients who received any doses of treatment. Efficacy evaluation was performed on all patients who received two or more cycles of treatment (≥8 weeks). Data points were excluded from relevant pharmacokinetic and platelet count analyses if samples were taken when the patient was on treatment interruption or within 3 days after resumption of treatment. […] Pre-dose total exposure of <3500 ng/mL was not expected to have significant BET inhibition effect and a level of ≥5000 ng/mL was expected to confer BET inhibition.
# BET = system: BET; parameters: method as in earlier work; settings: preclinical; cited from earlier work
# [5] = cohort 1A-1 0.6 mg/kg (50 mg) (n = 3)
# [6] = cohort 1A-2 1.3 mg/kg (100 mg) (n = 7)
compound,measurement,setting,value
COc1cc2c(cc1-c1c(C)noc1C)cc(C)c(=O)n2Cc1ccccn1 [ODM-207],correlation between plasma exposure and changes in platelet count over time,platelet count,strong correlation
same,recovery of platelet count upon treatment interruption,platelet count,Prompt recovery
same,cross-reactivity with non-BET family bromodomains,[1],minimal cross-reactivity
same,metabolite/parent ratio based in AUC(0-t),[2]; day 1,0.1–0.2
same,metabolite/parent ratio based in AUC(0-t),[2]; day 15,0.1–0.5
same,exposure versus dose,[2]; dose escalation 0.6–2.0 mg/kg,dose proportional exposure
same,Plasma exposure (AUC0-24) under fed condition versus fasting condition,"[2]; food effect cohort, single dose, light breakfast vs overnight fasting",1.5 fold
same,increase of mean AUC(0-t) between day 1 and day 15 of dosing,"[2]; n = 28, 95% CI 2.9, 3.8",3.4 fold
same,absorption and elimination (plasma pharmacokinetics),[2]; oral,slow absorption and elimination
same,non-CR/non-PD (non-measurable disease) as best response,selected solid tumours; 21 evaluable patients,6 (29%) patients
same,progressive disease (PD) as best response,selected solid tumours; 21 evaluable patients,9 (43%) patients
same,stable disease (SD) as best response,selected solid tumours; 21 evaluable patients,29%
same,"partial or complete response (PR, CR)","selected solid tumours; 21 evaluable patients (≥ 8 weeks of treatment), RECIST",None had a partial or complete response
same,patients with NMC with SD as best response,"selected solid tumours; NUT midline carcinoma, four patients",One out of four
same,correlation between progression-free survival and increased exposure,selected solid tumours; in vivo,no correlation
same,median (range) duration of SD,selected solid tumours; in vivo,16.3 (8.0–23.0) weeks
same,median progression-free survival,selected solid tumours; in vivo,2.2 months
same,"progression-free survival, range",selected solid tumours; in vivo,0.5–9.7 months
same,Treatment discontinuation due to disease progression,selected solid tumours; of 35 treated patients,28 (80%) patients
same,decline in PSA below baseline level,selected solid tumours; prostate cancer patients,None of the prostate cancer patients showed decline in PSA below baseline level
same,tumour growth inhibition,[3],preclinical evidence of tumour growth inhibition
same,Related AE: Asthenia,"[4]; GRADE 1, Total (n = 35)",3 (8.6) n (%)
same,Related AE: Decreased appetite,"[4]; GRADE 1, Total (n = 35)",12 (34) n (%)
same,Related AE: Diarrhoea,"[4]; GRADE 1, Total (n = 35)",9 (26) n (%)
same,Related AE: Dysgeusia,"[4]; GRADE 1, Total (n = 35)",4 (11) n (%)
same,Related AE: Fatigue,"[4]; GRADE 1, Total (n = 35)",9 (26) n (%)
same,Related AE: Headache,"[4]; GRADE 1, Total (n = 35)",7 (20) n (%)
same,Related AE: Nausea,"[4]; GRADE 1, Total (n = 35)",13 (37) n (%)
same,Related AE: Thrombocytopaenia,"[4]; GRADE 1, Total (n = 35)",15 (43) n (%)
same,Related AE: Vomiting,"[4]; GRADE 1, Total (n = 35)",7 (20) n (%)
same,Related AE: Weight loss,"[4]; GRADE 1, Total (n = 35)",4 (11) n (%)
same,Related AE: Asthenia,"[4]; GRADE 2, Total (n = 35)",3 (8.6) n (%)
same,Related AE: Decreased appetite,"[4]; GRADE 2, Total (n = 35)",8 (23) n (%)
same,Related AE: Diarrhoea,"[4]; GRADE 2, Total (n = 35)",5 (14) n (%)
same,Related AE: Dysgeusia,"[4]; GRADE 2, Total (n = 35)",3 (8.6) n (%)
same,Related AE: Fatigue,"[4]; GRADE 2, Total (n = 35)",6 (17) n (%)
same,Related AE: Headache,"[4]; GRADE 2, Total (n = 35)",3 (8.6) n (%)
same,Related AE: Nausea,"[4]; GRADE 2, Total (n = 35)",4 (11) n (%)
same,Related AE: Thrombocytopaenia,"[4]; GRADE 2, Total (n = 35)",8 (23) n (%)
same,Related AE: Vomiting,"[4]; GRADE 2, Total (n = 35)",3 (8.6) n (%)
same,Related AE: Weight loss,"[4]; GRADE 2, Total (n = 35)",1 (2.9) n (%)
same,Related AE: Fatigue,"[4]; GRADE 3, Total (n = 35)",2 (5.7) n (%)
same,Related AE: Nausea,"[4]; GRADE 3, Total (n = 35)",3 (8.6) n (%)
same,Related AE: Thrombocytopaenia,"[4]; GRADE 3, Total (n = 35)",4 (11) n (%)
same,Related AE: Weight loss,"[4]; GRADE 3, Total (n = 35)",1 (2.9) n (%)
same,Related AE: Thrombocytopaenia,"[4]; GRADE 4, Total (n = 35)",1 (2.9) n (%)
same,AEs leading to dose reduction,[4]; Total (n = 35),4 (11) n (%)
same,AEs leading to dosing interruption,[4]; Total (n = 35),19 (54) n (%)
same,DLTs,[4]; Total (n = 35),1 (2.9) n (%)
same,Grade ≥ 3 AEs,[4]; Total (n = 35),19 (54) n (%)
same,Related SAEs,[4]; Total (n = 35),3 (8.6) n (%)
same,SAEs,[4]; Total (n = 35),14 (40) n (%)
same,Common AE: nausea,"[4]; any grade, n = 35",66%
same,AEs leading to dosing interruption,[4]; [5],2 (67) n (%)
same,AEs leading to study discontinuation,[4]; [5],1 (33) n (%)
same,AEs leading to dosing interruption,[4]; [6],4 (57) n (%)
same,DLTs,[4]; [6],1 (14) n (%)
same,Grade ≥ 3 AEs,[4]; [6],3 (43) n (%)
same,SAEs,"[4]; cohort 1A-2 1.3 mg/kg (100 mg) (n = 7), oral once daily",2 (29) n (%)
same,AEs leading to dosing interruption,[4]; cohort 1A-3 1.5 mg/kg (n = 5),2 (40) n (%)
same,AEs leading to study discontinuation,[4]; cohort 1A-3 1.5 mg/kg (n = 5),2 (40) n (%)
same,Grade ≥ 3 AEs,[4]; cohort 1A-3 1.5 mg/kg (n = 5),2 (40) n (%)
same,SAEs,[4]; cohort 1A-3 1.5 mg/kg (n = 5),2 (40) n (%)
same,AEs leading to dose reduction,[4]; cohort 1A-4 2 mg/kg (n = 6),2 (33) n (%)
same,AEs leading to dosing interruption,[4]; cohort 1A-4 2 mg/kg (n = 6),5 (83) n (%)
same,AEs leading to study discontinuation,[4]; cohort 1A-4 2 mg/kg (n = 6),1 (17) n (%)
same,Grade ≥ 3 AEs,[4]; cohort 1A-4 2 mg/kg (n = 6),4 (67) n (%)
same,Related SAEs,[4]; cohort 1A-4 2 mg/kg (n = 6),2 (33) n (%)
same,SAEs,[4]; cohort 1A-4 2 mg/kg (n = 6),3 (50) n (%)
same,AEs leading to dose reduction,[4]; cohort 1B-1 1.1 mg/kg (n = 10),1 (10) n (%)
same,AEs leading to dosing interruption,[4]; cohort 1B-1 1.1 mg/kg (n = 10),4 (40) n (%)
same,AEs leading to study discontinuation,[4]; cohort 1B-1 1.1 mg/kg (n = 10),3 (30) n (%)
same,Grade ≥ 3 AEs,[4]; cohort 1B-1 1.1 mg/kg (n = 10),6 (60) n (%)
same,SAEs,[4]; cohort 1B-1 1.1 mg/kg (n = 10),3 (30) n (%)
same,AEs leading to dose reduction,[4]; cohort 1B-2 1.4 mg/kg (n = 4),1 (25) n (%)
same,AEs leading to dosing interruption,[4]; cohort 1B-2 1.4 mg/kg (n = 4),2 (50) n (%)
same,AEs leading to study discontinuation,[4]; cohort 1B-2 1.4 mg/kg (n = 4),2 (50) n (%)
same,Grade ≥ 3 AEs,[4]; cohort 1B-2 1.4 mg/kg (n = 4),4 (100) n (%)
same,Related SAEs,[4]; cohort 1B-2 1.4 mg/kg (n = 4),1 (25) n (%)
same,SAEs,[4]; cohort 1B-2 1.4 mg/kg (n = 4),4 (100) n (%)
same,highest studied dose achieved,[4]; due to cumulative toxicity beyond the DLT treatment window,2 mg/kg
same,Common AE: anorexia,[4]; n = 35,49%
same,Common AE: diarrhoea,[4]; n = 35,40%
same,Common AE: fatigue,[4]; n = 35,43%
same,Common AE: headache,[4]; n = 35,37%
same,Common AE: vomiting,[4]; n = 35,40%
same,Common AE: weight loss,[4]; n = 35,23%
same,deaths on study,[4]; n = 35,"five deaths on study, all of which were considered not related to ODM-207"
same,treatment-related grade ≥3 adverse event: fatigue,[4]; n = 35,5.7%
same,treatment-related grade ≥3 adverse event: nausea,[4]; n = 35,8.6%
same,treatment-related grade ≥3 adverse event: thrombocytopaenia,[4]; n = 35,14.3%
same,Treatment discontinuation due to AEs,[4]; of 35 treated patients,5 (14%) patients
same,dose-limiting toxicity observed,"[4]; one patient, 100 mg (1.9 mg/kg), cohort 1A-2",intolerable grade 3 fatigue
same,maximum tolerated dose (MTD),"[4]; oral once daily, 28-day cycle, based upon observed adverse events beyond the DLT period",2 mg/kg
same,patients who experienced a treatment-related AE,"[4]; overall, n = 35",31 (89%) patients
same,BET inhibition potency,BET,highly potent
